Source: patent publication US12458602B2, “Realizing the nano-amorphous state of materials inside nano-porous templates” (The Chinese University of Hong Kong, priority 2021, dated 2025)

Experiment: In-vitro dissolution test in deionized water
Format: physicochemical
Settings: room temperature
Protocol: The total drug dose is about 50 mg dissolved in 1 L of deionized water at the room temperature. In order to obtain the concentration versus time plot, a series of samples (3 mL) are withdrawn at predetermined time points, and the same amount of fresh media is added back to maintain a constant volume (1 L). These withdrawn samples are filtered by 0.22 μm MCE filters, and their concentrations are then determined with a UV spectrophotometer.

| Compound | drug released in 6 hours [%] |
| --- | --- |
| CC(C(=O)O)c1ccc(-c2ccccc2)c(F)c1 (centres unmarked) [Flurbiprofen crystal, Flurbiprofen] | 9.5 |
| CCC(COC(=O)c1cc(OC)c(OC)c(OC)c1)(c1ccccc1)N(C)C (centres unmarked) [Trimebutine crystal, Trimebutine] | 1.18 |
